Reference: US20250221410A1, “SUBSTITUTED 2-C-AZINES AND SALTS THEREOF, AND USE THEREOF AS HERBICIDAL ACTIVE SUBSTANCES” (BAYER AKTIENGESELLSCHAFT, priority 2022, published 2025)

Key:
[1] = test system: AMARE: Amaranthus retroflexus; assay: Pre-emergence herbicide efficacy at 80 g/ha, AMARE; format: in vivo; details: scored visually after about 3 weeks
Summary of the method: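 Applied to the soil surface directly after sowing, before emergence, as an aqueous WP or EC preparation containing 0.5% additive. Percent efficacy was rated by eye about 3 weeks later in the greenhouse.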

[2] = test system: AMARE: Amaranthus retroflexus; assay: Post-emergence herbicidal efficacy at 80 g/ha, AMARE; format: in vivo; details: visual rating about 3 weeks after treatment vs untreated controls
Summary of the method: (§1)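 Greenhouse plants grown in sandy loam were sprayed at the one-leaf stage, 2 to 3 weeks after sowing, with WP or EC formulations in water containing 0.5% additive at 600 l/ha. Visual rating against untreated controls came about 3 weeks later (100% = dead, 0% = as control).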

POLCO = assay: Post-emergence herbicidal efficacy at 80 g/ha, POLCO; format: in vivo, Polygonum convolvulus; details: visual rating about 3 weeks after treatment vs untreated controls
Protocol: Seeds of monocotyledonous and dicotyledonous weeds and crop plants were placed in sandy loam in plastic or organic planting pots, covered with soil and cultivated in a greenhouse under controlled growth conditions. 2 to 3 weeks after sowing, the test plants were treated at the one-leaf stage. The compounds of the invention, formulated in the form of wettable powders (WP) or as emulsion concentrates (EC), were then sprayed onto the green parts of the plants as aqueous suspension or emulsion with addition of 0.5% additive at a water application rate of 600 l/ha (converted). After the test plants had been kept in the greenhouse under optimum growth conditions for about 3 weeks, the activity of the preparations was rated visually in comparison to untreated controls. For example, 100% activity=the plants have died, 0% activity=like control plants. Tables B1 to B10 below show the effects of selected compounds of the general formula (I) according to Table 1 on various harmful plants and an application rate corresponding to 80 g/ha, which were obtained by the experimental procedure mentioned above.

VERPE: Veronica persica [3] = assay: Post-emergence herbicidal efficacy at 80 g/ha, VERPE; format: in vivo; details: visual rating about 3 weeks after treatment vs untreated controls
Summary of the method: as §1

VERPE: Veronica persica [4] = assay: Pre-emergence herbicide efficacy at 80 g/ha, VERPE; format: in vivo; details: scored visually after about 3 weeks
Source text: Seeds of monocotyledonous and dicotyledonous weed plants and crop plants were placed in plastic or organic planting pots and covered with soil. The compounds of the invention, formulated in the form of wettable powders (WP) or as emulsion concentrates (EC), were then applied to the surface of the covering soil as aqueous suspension or emulsion with addition of 0.5% additive at a water application rate equivalent to 600 l/ha. After the treatment, the pots were placed in a greenhouse and kept under good growth conditions for the test plants. After about 3 weeks, the efficacy of the preparations was scored visually in comparison with untreated controls as percentages. For example, 100% activity=the plants have died, 0% activity=like control plants. Tables D1 to D12 below show the effects of selected compounds of the general formula (I) according to Table 1 on various harmful plants and an application rate corresponding to 80 g/ha, which were obtained by the experimental procedure mentioned above.

[5] = test system: AMARE: Amaranthus retroflexus; assay: Pre-emergence herbicide efficacy at 1280 g/ha, AMARE; format: in vivo; details: visual scoring after about 3 weeks vs untreated controls
Summary of the method: (§2)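 Efficacy is a visual percentage rating against untreated controls, taken about 3 weeks after soil-surface application to freshly sown, soil-covered seeds in sandy loam.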

[6] = test system: ECHCG: Echinochloa crus-galli; assay: Pre-emergence herbicide efficacy at 1280 g/ha, ECHCG; format: in vivo; details: visual scoring after about 3 weeks vs untreated controls
Summary of the method: as §2

[7] = test system: ABUTH: Abutilon theophrasti; assay: Pre-emergence herbicide efficacy at 1280 g/ha, ABUTH; format: in vivo; details: visual scoring after about 3 weeks vs untreated controls
Summary of the method: as §2

SETVI: Setaria viridis [8] = assay: Pre-emergence herbicide efficacy at 1280 g/ha, SETVI; format: in vivo; details: visual scoring vs untreated controls
Summary of the method: as §2

POAAN: Poa annua [9] = assay: Pre-emergence herbicide efficacy at 1280 g/ha, POAAN; format: in vivo; details: visual scoring after about 3 weeks vs untreated controls
Summary of the method: as §2

LOLRI: Lolium rigidum = assay: Post-emergence herbicidal efficacy at 1280 g/ha, LOLRI; format: in vivo; details: visual rating about 3 weeks after treatment vs untreated controls
Protocol: (§3) Seeds of mono- and dicotyledonous weed plants were placed in plastic pots in sandy loam soil (doubly sown with in each case one species of mono- or dicotyledonous weed plants per pot), covered with soil and cultivated in a greenhouse under controlled growth conditions. 2 to 3 weeks after sowing, the test plants were treated at the one-leaf stage. The compounds of the invention, formulated in the form of wettable powders (WP) or as emulsion concentrates (EC), were applied to the green parts of the plants as aqueous suspension or emulsion with addition of 0.5% additive at a water application rate equivalent to 600 litres per hectare. After the test plants had been kept in the greenhouse under optimum growth conditions for about 3 weeks, the activity of the preparations was rated visually in comparison to untreated controls. For example, 100% activity=the plants have died, 0% activity=like control plants. Tables A1 to A12 below show the effects of selected compounds of the general formula (I) according to Table 1 on various harmful plants and at an application rate corresponding to 1280 g/ha, which were obtained by the trial procedure specified above.

VERPE: Veronica persica [10] = assay: Post-emergence herbicidal efficacy at 1280 g/ha, VERPE; format: in vivo; details: visual rating about 3 weeks after treatment vs untreated controls
Summary of the method: (§4)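 Greenhouse pot test in sandy loam. Plants at the one-leaf stage, 2–3 weeks after sowing, were sprayed post-emergence with WP or EC formulations in water containing 0.5% additive, at 600 L/ha. Activity was scored visually about 3 weeks later against untreated controls (100% = dead, 0% = as control).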

KCHSC: Kochia scoparia [11] = assay: Pre-emergence herbicide efficacy at 1280 g/ha, KCHSC; format: in vivo; details: visual scoring after about 3 weeks vs untreated controls
Summary of the method: as §2

STEME: Stellaria media [12] = assay: Pre-emergence herbicide efficacy at 1280 g/ha, STEME; format: in vivo; details: visual scoring vs untreated controls
Summary of the method: as §2

[13] = test system: AMARE: Amaranthus retroflexus; assay: Post-emergence herbicidal efficacy at 1280 g/ha, AMARE; format: in vivo; details: rated visually after about 3 weeks vs untreated controls, 100% = plants have died, 0% = like control plants
Summary of the method: as §4

KCHSC: Kochia scoparia [14] = assay: Post-emergence herbicidal efficacy at 1280 g/ha, KCHSC; format: in vivo; details: visual rating about 3 weeks after treatment vs untreated controls
Summary of the method: as §4

STEME: Stellaria media [15] = assay: Post-emergence herbicidal efficacy at 1280 g/ha, STEME; format: in vivo; details: visual rating about 3 weeks after treatment vs untreated controls
Summary of the method: as §4

VERPE: Veronica persica [16] = assay: Pre-emergence herbicide efficacy at 1280 g/ha, VERPE; format: in vivo; details: visual scoring vs untreated controls
Summary of the method: as §2

SETVI: Setaria viridis [17] = assay: Post-emergence herbicidal efficacy at 1280 g/ha, SETVI; format: in vivo; details: visual rating about 3 weeks after treatment vs untreated controls
Summary of the method: as §4

[18] = test system: DIGSA: Digitaria sanguinalis; assay: Post-emergence herbicidal efficacy at 1280 g/ha, DIGSA; format: in vivo; details: rated visually after about 3 weeks vs untreated controls, 100% = plants have died, 0% = like control plants
Summary of the method: as §4

[19] = test system: ALOMY: Alopecurus myosuroides; assay: Pre-emergence herbicide efficacy at 1280 g/ha, ALOMY; format: in vivo; details: visual scoring after about 3 weeks vs untreated controls
Source text: Seeds of mono- and dicotyledonous weed plants were placed in plastic pots in sandy loam soil (doubly sown with one species each of mono- or dicotyledonous weed plants per pot) and covered with soil. The compounds of the invention, formulated in the form of wettable powders (WP) or as emulsion concentrates (EC), were then applied to the surface of the covering soil as aqueous suspension or emulsion with addition of 0.5% additive at a water application rate of 600 litres per hectare (converted). After the treatment, the pots were placed in a greenhouse and kept under good growth conditions for the test plants. After about 3 weeks, the efficacy of the preparations was scored visually in comparison with untreated controls as percentages. For example, 100% activity=the plants have died, 0% activity=like control plants. Tables C1 to C12 below show the effects of selected compounds of the general formula (I) according to Table 1 on various harmful plants and at an application rate corresponding to 1280 g/ha, which were obtained by the trial procedure specified above.

POAAN: Poa annua [20] = assay: Post-emergence herbicidal efficacy at 1280 g/ha, POAAN; format: in vivo; details: visual rating about 3 weeks after treatment vs untreated controls
Summary of the method: as §4

[21] = test system: DIGSA: Digitaria sanguinalis; assay: Pre-emergence herbicide efficacy at 1280 g/ha, DIGSA; format: in vivo; details: visual scoring after about 3 weeks vs untreated controls
Summary of the method: as §2

[22] = test system: ECHCG: Echinochloa crus-galli; assay: Post-emergence herbicidal efficacy at 1280 g/ha, ECHCG; format: in vivo; details: rated visually after about 3 weeks vs untreated controls, 100% = plants have died, 0% = like control plants
Summary of the method: as §4

[23] = test system: ALOMY: Alopecurus myosuroides; assay: Post-emergence herbicidal efficacy at 1280 g/ha, ALOMY; format: in vivo; details: rated visually after about 3 weeks vs untreated controls, 100% = plants have died, 0% = like control plants
Protocol: as §3

[24] = test system: ABUTH: Abutilon theophrasti; assay: Post-emergence herbicidal efficacy at 1280 g/ha, ABUTH; format: in vivo; details: rated visually after about 3 weeks vs untreated controls, 100% = plants have died, 0% = like control plants
Summary of the method: as §4

[25] = test system: MATIN: Matricaria inodora; assay: Post-emergence herbicidal efficacy at 1280 g/ha, MATIN; format: in vivo; details: visual rating about 3 weeks after treatment vs untreated controls
Protocol: as §3

[26] = test system: MATIN: Matricaria inodora; assay: Pre-emergence herbicide efficacy at 1280 g/ha, MATIN; format: in vivo; details: visual scoring after about 3 weeks vs untreated controls
Summary of the method: as §2

SMILES	Pre-emergence efficacy against AMARE [5] [%]	Pre-emergence efficacy against ECHCG [6] [%]	Pre-emergence efficacy against ABUTH [7] [%]	Pre-emergence efficacy against SETVI in % (SETVI: Setaria viridis [8]) [%]	Pre-emergence efficacy against POAAN (POAAN: Poa annua [9]) [%]	Post-emergence efficacy against VERPE (VERPE: Veronica persica [10]) [%]	Pre-emergence efficacy against KCHSC (KCHSC: Kochia scoparia [11]) [%]	Pre-emergence efficacy against STEME in % (STEME: Stellaria media [12]) [%]	Post-emergence efficacy at 1280 g/ha against AMARE in % [13] [%]	Post-emergence efficacy against STEME (STEME: Stellaria media [15]) [%]	Pre-emergence efficacy against VERPE in % (VERPE: Veronica persica [16]) [%]	Pre-emergence efficacy against DIGSA [21] [%]	Post-emergence efficacy at 1280 g/ha against ABUTH in % [24] [%]	further results
O=S(=O)(CCC(F)(F)F)Oc1c(F)cccc1Cc1ncc(Cl)cn1 [Example 1-16]														Pre-emergence efficacy against AMARE in % [1]: 100%; Post-emergence efficacy against AMARE [2]: 100%; Post-emergence efficacy against POLCO (POLCO): 80%; Post-emergence efficacy against VERPE (VERPE: Veronica persica [3]): 90%; Pre-emergence efficacy against VERPE in % (VERPE: Veronica persica [4]): 90%
Cc1cccc(Oc2ncc(Cl)cc2F)c1Cc1ncc(Cl)cn1 [Example 1-66]	100	100	100	100	100	100	100	100	100	100	100	100	100	Post-emergence efficacy against LOLRI (LOLRI: Lolium rigidum): 90%; Post-emergence efficacy against KCHSC (KCHSC: Kochia scoparia [14]): 100%; Post-emergence efficacy against SETVI (SETVI: Setaria viridis [17]): 100%; Post-emergence efficacy at 1280 g/ha against DIGSA in % [18]: 100%; Pre-emergence efficacy against ALOMY [19]: 90%; Post-emergence efficacy against POAAN (POAAN: Poa annua [20]): 100%; Post-emergence efficacy at 1280 g/ha against ECHCG in % [22]: 100%; Post-emergence efficacy at 1280 g/ha against ALOMY in % [23]: 90%
Fc1cnc(Cc2ccccc2Oc2ncc(Cl)cn2)nc1 [Example 1-70]	100	90	90	100	90	90	100	100	90	90	90	100	100	Post-emergence efficacy against MATIN [25]: 90%; Pre-emergence efficacy against MATIN [26]: 100%
